From US7166612B2, “Methods for reducing platelet activation platelet aggregaton or thrombosis” (Beth Israel Deaconess Medical Center, priority 2001, dated 2007)

Assays:
[1] = test system: laser-induced thrombi in cremaster arterioles; format: in vivo
From the text: A preferred animal model involves intravital microscopy of laser-induced thrombi. The method is described by Rosen et al., 2001, Am J Pathol 158, 1613–1622, which is incorporated herein by reference. Minor variations of that method were employed as described below.
Experimental mice are pre-anesthetized and surgically prepared. A tracheal tube is placed to facilitate breathing and the jugular vein is canulated to allow for maintenance of anesthetic and introduction of compound. The cremaster muscle is then exteriorized. The muscle is affixed over a glass slide, allowing illumination from below. A steady drip of a sodium-bicarbonate buffered salt solution is maintained throughout the experiment to keep the exposed muscle moist. Blood flow in the muscle is visualized using a 40× water immersion lens and epi-illuminated with an appropriately filtered light source. Alexa 488-labeled anti-mouse CD41 antibody is injected through the jugular canulus to label platelets in vivo.
Thrombosis is initiated by damaging the vessel wall (of a 30 μm vessel) with a laser pulse from a MicroPoint LASER attached to the microscope. A LASER pulse is delivered, causing damage in an area smaller than 1 μm. The recruitment of platelets to the thrombus is then monitored by the accumulation of (activated) Alexa 488-labeled platelets at the ablation site using fluorescence microscopy, and the process is recorded digitally. The method thus permits in vivo analysis of platelet activation as measured by platelet aggregation and thrombosis.
The degree of embolization in an untreated mouse can be quantified using software for image analysis, e.g., BioQuant True Color Windows (Biometrics, Nashville, Tenn.), as described in Rosen et al., 2001, supra. The software package permits the determination of the “integrated optical density” or IOD of the thrombus.
Using quantitative intravital fluorescence videomicroscopy with high temporal resolution (111 images/second), the effect of PDE3 inhibition on the platelet recruitment into thrombi was directly observed over time. Platelets were fluorescently labeled by infusing rat-anti-mouse CD41 and Alexa 488-anti-rat IgG through a cannulated jugular vein. The cremaster microvasculature was exposed and mapped and suitable arteriole segments were selected for laser-induced injury. A series of control injuries were generated prior to infusion of the inhibitory compound. The power and the number of laser pulses required to generate each thrombus was recorded. Platelet accumulation to the thrombi following laser ablation was recorded using digital videomicroscopy. The thrombus total fluorescence in each frame of the videos was analyzed using Slidebook software for digital videomicroscopy. The pyridazinone compound was then infused. Following a 15 minute incubation, a series of experimental injuries were generated 250 μm proximal, with relationship to blood flow, of the first injury and the resultant thrombi were recorded. The power and the number of pulses required to induce the control thrombus was used to induce the experimental thrombus. The control and experimental thrombi constituting a pair were compared for statistical analysis. The total fluorescence intensity of the thrombi before and after the infusion of pyridazinone compound was recorded.
Images from a representative experiment of the recruitment of fluorescently-labeled […] platelets into a growing thrombus over time is shown in FIG. 9A.

[2] = test system: mouse platelets; conditions: in words
[3] = test system: platelets; test: agonist-induced platelet granule secretion (P-selectin expression, flow cytometry); format: cell-based, human
Protocol: In order to assay platelet activation by cell surface marker expression, fresh PRP is isolated from donors who have not ingested aspirin for two weeks prior to donation. PRP (40 μl) is incubated with known or suspected inhibitor in DMSO or DMSO alone for 15 min. The sample is then incubated with the indicated agonist (e.g., SFLLR) for 10 min. Following incubation of the sample with the indicated agonist, 10 μl of reaction mixture is transferred to 5 μl of phycoerythrin (PE)-conjugated AC 1.2 anti-P-selectin antibody (for assessment of P-selectin surface expression) or fluorescein isothiocyanate (FITC)-conjugated PAC-1 antibody (for assessment of GPIIbIIIa activation). PBS (500 μl) is added to the sample after a 20 min incubation and the platelets are analyzed immediately by flow cytometry. Flow cytometry can be performed using, for example, a Becton-Dickinson FACSCalibur flow cytometer or its equivalent. Fluorescent channels are set at logarithmic gain. Ten thousand particles are acquired for each sample. A 530/30 band pass filter is used for FL-1 fluorescence. A 585/42 band pass filter is used for FL-2 fluorescence. FITC is measured in the FL-1 channel and PE is measured in the FL-2 channel. Data are analyzed using, for example, CellQuest software on a Macintosh PowerPC, or their equivalents. […]
Each of the compounds was tested for inhibition of platelet activation in response to the agonists SFLLR (a thrombin mimic), U46619 (a thromboxane A2 mimic), ADP and the phorbol ester PMA.
Compounds were also tested by flow cytometry for the inhibition of SFLLR-induced GPIIbIIIa activation and P-selectin expression. In these experiments, freshly obtained PRP was prepared from healthy volunteers who had not ingested aspirin for two weeks prior to donation. Forty μl of PRP was incubated with inhibitor in DMSO or DMSO alone for 15 min. The sample was then incubated with the indicated agonist for 10 min. Following incubation of the sample with the indicated agonist, 10 μl of reaction mixture was transferred to 5 μl of PE-conjugated AC1.2 anti-P-selectin antibody (for assessment of P-selectin surface expression) or FITC-conjugated PAC-1 antibody (for assessment of GPIIbIIIa activation). PBS (500 μl) was added to the sample after a 20 min incubation and the platelets were analyzed immediately by flow cytometry. Flow cytometry was performed using a Becton-Dickinson FACSCalibur flow cytometer. Fluorescent channels were set at logarithmic gain. Ten thousand particles were acquired for each sample. A 530/30 band pass filter was used for FL-1 fluorescence. A 585/42 band pass filter was used for FL-2 fluorescence. FITC was measured in the FL-1 channel and PE was measured in the FL-2 channel. Data were analyzed using CellQuest software on a MacIntosh PowerPC.
Compound was tested for its ability to inhibit SFLLR-, U46619-, ADP-, PMA-, and collagen I-induced platelet α-granule secretion. In these assays, platelets were incubated with increasing doses of compound for 30 minutes. The platelets were then exposed to a maximally stimulatory dose of the indicated agonist. P-selectin surface expression was analyzed by flow cytometry using phycoerythrin-anti-P-selectin to monitor for α-granule secretion.

[4] = test system: PGE1-induced cAMP levels in platelets; test: augmentation of PGE1-induced cAMP levels in platelets; format: cell-based, human; conditions: in words
Protocol: (A) Compound was tested for its ability to inhibit SFLLR-, U46619-, ADP-, PMA-, and collagen I-induced platelet α-granule secretion. (B) The effect of the compound on PGE1-stimulated cAMP elevation was analyzed. Platelets were incubated with increasing doses of pyridazinone compound for 30 minutes prior to the 2 minute incubation with PGE1. Platelets were subsequently lysed and cAMP level was assayed using a commercially available ELISA kit (Liao et al., 1998, Eur J Pharmacol 349, 107–14). […] Error bars represent mean ±1 SD (n=4), *P<0.001.
One frequent target of anti-platelet agents is phosphodiesterase III (PDE III). […] The assay is performed as described by Liao et al., 1998, Eur J Pharmacol 349,107–114, incorporated herein by reference. Briefly, aliquots of PRP are exposed to increasing concentrations of the agent for 20 minutes. The PRP is then challenged with 1 μM PGE1 for 2 min The reaction is stopped by adding 10 mM EDTA, followed immediately by boiling for 2 min. The mixture is cooled to 4° C. and the precipitated protein is pelleted. cAMP content in the supernatant is quantitated using an enzyme immunoassay kit (Pharmacia-Amersham, NJ) according to the instructions of the manufacturer.
In order to assess whether the compounds useful according to the invention might act through inhibition phosphodiesterase III, each was tested for its effect on PGE1-induced cAMP increase. Determination of platelet cAMP levels was performed as described by Liao et al., 1998, supra. Aliquots of PRP were exposed to increasing concentrations of the indicated compounds for 20 min. PRP was then challenged with 1 μM PGE1 for 2 min. The reaction was stopped with the addition of 10 mM EDTA followed immediately by boiling for 2 min. The mixture was then cooled to 4° C. and the precipitated protein was pelleted. Cyclic AMP content in the supernatant was then quantified using an enzyme immunoassay kit (Pharmacia-Amersham, NJ) according to the instructions of the manufacturer.

[5] = test system: platelets; test: platelet aggregation (aggregometer); format: cell-based, human; conditions: in words
Protocol: Platelet aggregation profiling is a standard methodology, generally performed with an instrument adapted for that express purpose, for example, a Platelet Aggregation Profiler (BioData, Horsham, Pa.). The assays can generally be performed according to the instructions of the manufacturer. As exemplary conditions, 400 μl of PRP are incubated with inhibitor for 15 minutes at room temperature. The sample is then incubated for 3 minutes at 37° C. in the Platelet Aggregation Profiler. The instrument is calibrated with platelet poor plasma serving as a blank. A baseline tracing is established by monitoring the light transmittance of PRP being stirred at 1200 rpm. Aggregation is initiated by the addition of SFLLR (200 μM) and the percent of platelet aggregation is measured by the change in light transmittance for 6 minutes following addition of SFLLR.

[6] = test system: platelet protein palmitoylation; test: incorporation of [3H]-palmitate into platelet proteins; format: cell-based; conditions: 100 μM compound; 20 μM or 200 μM SFLLRN; in words
Protocol: Platelets were labeled with [^3H]-palmitate for 2 hours in the absence (lanes 1, 2, and 3) or presence (lanes 4, 5, and 6) of 100 μM JF081204{5C} for 2 hours. Labeled platelets were then incubated with 0 μM ([…]), 20 μM (lanes 2 and 5), or 200 μM SFLLRN (lanes 3 and 6). Platelet samples were lysed, separated by SDS-PAGE, Western blotted, and visualized with a tritium imager screen (Panel a). The activation of platelets by SFLLRN led to an increase incorporation of [^3H]-palmitate into platelet proteins, whereas the presence of JF081204{5C} inhibited this activation-dependent [^3H]-palmitate incorporation (Panel b). Western blot membrane from panel (a) was stained with Ponceau S to visualize proteins in the platelet lysates.
The incorporation of [^3H]-palmitate into platelet intracellular proteins was examined to determine the effect of JF081204{5C} on platelet protein palmitoylation. […] Exposure of platelets to either 20 μM or 200 μM SFLLRN increased the intensity of the labeling. Incubation of platelets with 100 μM of JF081204 {5C} inhibited the increase in [^3H]-palmitate incorporation induced by either 20 μM or 200 μM SFLLRN.

[7] = test system: patients suffering intermittent claudication; conditions: cited from earlier work

In the case of “9-methylene-4-(alkyl)-2,3,4,9-tetrahydro-1H-cyclopenta(b)quinoline”, the “thrombosis following laser-induced injury (reduction)” value ([1]; bolus 6 mg/kg/5 min then continuous infusion 3 mg/kg/90 min, 36 thrombi in 5 mice) is reported as “greater than 80%” and the “activation of mouse platelets by several platelet agonists” value [2] is reported as “inhibits activation of mouse platelets”.
With `Cn1cc(/C=N/NC(N)=O)c2ccccc21` [2-[(1-methyl-1H-indol-3-yl)methylene]-hydrazinecarboxamide] the “effect on ADP-induced activation” value ([3]; ADP-induced, in words) was “little effect”, the “effect on PMA-induced platelet activation” value ([3]; in words) was “little effect” and the “effect on PGE1-stimulated cAMP levels in platelets” value [4] was “augmented cAMP levels”.
For `CCCCCn1c2c(c(=N)c3ccccc31)CCC2` [JF081204{5C}], the “IC50s for U46619-, A23187-, and PMA-induced P-selectin expression less potent than SFLLR” value ([3]; U46619, A23187, PMA vs SFLLR) was “at least 150 fold”, the “median of maximum platelet accumulation compared to absence of compound” value ([1]; 3 mg/kg (P<0.002) and 6 mg/kg (P<0.02), in words) was “statistically significant decrease” and the “median stabilized platelet accumulation” value ([1]; 3 mg/kg (P<0.01) and 6 mg/kg (P<0.001), in words) was “dose-dependent inhibition”. For the same molecule, the “delay in onset of platelet accumulation (time to 50% maximum platelet accumulation)” value ([1]; 1, 3 and 6 mg/kg, in words) was “statistically significant delay”, the “inhibition of U46619- and collagen-induced platelet aggregation” value [5] was “not effective” and the “SFLLRN activation-dependent [3H]-palmitate incorporation into platelet proteins” value [6] was “inhibited”.
In the case of `CC1CC(=O)NN=C1c1ccc(Cl)cc1` (stereo not drawn) [Structure 9, 6-(4-chlorophenyl)-5-methyl-4,5-dihydro-5 methyl-3(2H)-pyridazinone], the “effect on PMA-induced platelet activation” value ([3]; in words) is reported as “did not inhibit”.
With `Nc1cc2cccnc2c2ncccc12` [[1,10]Phenanthroline-5-ylamine, [1,10] Phenanthroline-5-ylamine] the “effect on PMA-induced platelet activation” value ([3]; in words) was “did not inhibit” and the “effect on PGE1-stimulated cAMP levels in platelets” value [4] was “failed to augment”.
For `O=C1CCc2cc(OCCCCc3nnnn3C3CCCCC3)ccc2N1` [cilostazol], the “increase of the distance of pain free walking” value [7] is given as “up to 59%”.
